{"source": "patent US20220062331A1", "about": "“TREATING IRON DEFICIENCY IN SUBJECTS AT RISK OF CARDIOVASCULAR ADVERSE EVENTS AND IRON FOR THE MANAGEMENT OF ATRIAL FIBRILLATION” (PHARMACOSMOS HOLDING A/S, priority 2019, published 2022)", "key": {"iFGF23 (intact FGF23)": {"test_system": "iFGF23 (intact FGF23)", "conditions": "cited from earlier work"}, "[1]": {"assay": "IDA-03 Phase III study: protocol defined cardiovascular adverse events", "assay_type": "in vivo, human", "conditions": "IDA-03 study, 989 vs 494 patients, within 8 weeks", "protocol": "(§1) Two Phase III randomized, open-label, comparative safety and efficacy studies were performed in relation to treatment with iron isomaltoside (“IIM”, tradename Monofer®, Monoferric®) and iron sucrose (“IS”, trade name Venofer®) in adult human subjects with iron deficiency anaemia and non-dialysis-dependent chronic kidney disease. These studies allowed comparing the incidence of treatment-emergent cardiovascular adverse events in particular in patients with cardiovascular risk factors.\n(§2) The studies were randomized, open-label, comparative studies. Subjects with iron deficiency anaemia (IDA) were randomized 1:1 to one treatment course of one of two treatments. Iron isomaltoside 1000 was administered as a single dose of 1000 mg of elemental iron. Iron sucrose was administered as 200 mg slow intravenous bolus injections according to its US label and repeated up to 5 times to reach a cumulative dose of 1000 mg. […]"}, "[2]": {"conditions": "single total dose infusion; 2 weeks post-infusion; cited from earlier work"}, "[3]": {"conditions": "20 elderly CHF patients, cited from earlier work"}, "[4]": {"assay": "Randomized double-blind placebo-controlled trial in chronic heart failure patients: P-wave dispersion on 12-lead ECG (post-hoc analysis)", "assay_type": "in vivo, human", "excerpt": "This study was a post-hoc analysis of a randomized, double-blind, placebo-controlled trial that was approved by the South-Central Berkshire ethics committee, the UK Medicines and Healthcare products Regulatory Agency, and the King's College Hospital independent research governance board. King's College London University and King's College Hospital NHS Foundation Trust were co-sponsors. The King's Health Partners clinical trial office monitored the trial and ensured compliance with the International Conference on Harmonization guidelines for Good Clinical Practice and the Declaration of Helsinki. Written informed consent was obtained from all patients. FIG. 1 represents a flow chart of the trial. A total of 25 chronic heart failure patients in normal sinus rhythm were recruited into this trial with 15 randomized to intravenous saline placebo and 10 randomized to intravenous iron isomaltoside.\nPatients with stable, symptomatic, chronic heart failure and a left ventricular ejection fraction <45% were recruited from dedicated heart failure clinics at King's College Hospital, London. Main exclusion criteria were a history of acquired iron overload, known haemochromatosis or first degree relatives with haemochromatosis; an allergic disorder (e.g., asthma, eczema, and anaphylactic reactions); prior hypersensitivity to IV iron drugs or their excipients; active infection, bleeding, malignancy, haemolytic anemia, rheumatoid arthritis, and myelodysplasia; and HIV/AIDS.\nAfter inclusion into the trial, patients had endpoints assessed which included a 12-lead surface electrocardiogram to measure P-wave dispersion (difference between maximum and minimum P-wave duration across all leads), heart rate (HR), PR interval, QRS duration, QT interval and corrected QT interval (QTc). FIG. 2 is an example of a surface electrocardiogram with P-wave durations measured. An echocardiogram was also done to measure LVEF, left ventricular end-diastolic volume (LVED), left ventricular end-systolic volume (LVES), left atrial (LA) volumes and right atrial (RA) volumes with and without indexing for body surface area. After baseline assessments, patients were then infused a total repletion dose of iron isomaltoside or an equivalent volume of normal saline placebo. Endpoints were then reassessed 2 weeks later. A Student's t-test or a Fisher's Exact test were statistically used to assess the baseline characteristics between the groups. An ANCOVA was used to statistically compare the week 2 endpoint results between the groups with adjustment for each variables baseline value."}, "[5]": {"assay": "Combined CKD-04/IDA-03 studies: treatment-emergent cardiovascular and congestive heart failure adverse events", "assay_type": "in vivo", "conditions": "for composite cardiovascular events (incidence, % of patients): 2008 patients on IIM, p=0.0176; for treatment-emergent congestive heart failure adverse events (% of patients) / worsening/exacerbation of heart failure (% of cases): all patients with CHF", "protocol": "as §1\nThe studies were randomized, open-label, comparative studies. Subjects with iron deficiency anaemia (IDA) were randomized 1:1 to one treatment course of one of two treatments. Iron isomaltoside 1000 was administered as a single dose of 1000 mg of elemental iron. Iron sucrose was administered as 200 mg slow intravenous bolus injections according to its US label and repeated up to 5 times to reach a cumulative dose of 1000 mg.\nSaid protocol defined cardiovascular adverse events were as follows: • (1) Congestive heart failure requiring hospitalization or medical intervention: • Congestive heart failure requiring hospitalization or medical intervention was defined as meeting the following criteria: • Requires hospitalization defined as an admission to an inpatient unit or a visit to an emergency department that results in at least a 12-hour stay (or a date change if the time of admission/discharge is not available); AND • Clinical manifestation of congestive heart failure including at least one of the following: new or worsening dyspnoea, orthopnoea, paroxysmal nocturnal dyspnoea, oedema, pulmonary basilar crackles, jugular venous distension, or radiological evidence of worsening heart failure; AND • Additional/increased therapy: • Intravenous treatment with diuretic, inotrope, or vasodilator therapy; OR • Mechanical or surgical intervention (mechanical circulatory support, heart transplantation, or ventricular pacing to improve cardiac function) or the use of ultrafiltration, hemofiltration, or dialysis that is specifically directed at treatment of heart failure. • (2) Arrhythmia: • Arrhythmia was defined as any symptomatic deviation from normal sinus rhythm experienced by the subject that results in an evaluation by a health care provider. The evaluation included a physical examination during an outpatient visit, an ECG, or a hospital admission. […]"}, "[6]": {"assay": "Combined CKD-04/IDA-03 studies: change from baseline in hemoglobin", "assay_type": "in vivo, human", "protocol": "The primary efficacy outcome measure was the ability to increase Hb (g/dL) within 8 weeks.\nThe co-primary efficacy endpoint was analysed using a restricted maximum likelihood (REML)-based mixed model for repeated measures (MMRM) approach. All subjects in the intention-to-treat (ITT) analysis set with post baseline Hb data was to be included with their observed data. The model included the fixed, categorical effects of treatment (iron isomaltoside and iron sucrose), week, treatment-by-week interaction, strata, as well as the continuous, fixed covariates of baseline Hb value and baseline Hb-by-week interaction. An unstructured (co)variance structure was used to model the within-subject errors. […] The Kenward-Roger approximation was to be used to estimate the denominator degrees of freedom. The primary comparisons will be the contrasts between iron isomaltoside and iron sucrose at week 8 based on the least squares means for the treatment-by-week interaction effect. The estimated mean difference based on this model was reported with two-sided symmetric 95% CI, and if the lower bound of the 95% CI is >−0.5 g/dL, the efficacy objective has been met.\nThe following efficacy laboratory parameters were analysed: • Hb: Hemoglobin was analyzed by the Coulter LH 750 System. Lytic reagents were used for the complete blood count parameters to prepare the blood so that the system could measure the amount of hemoglobin. The lytic reagent rapidly and simultaneously destroyed the erythrocytes and converted the substantial proportion of the hemoglobin to a stable pigment. The absorbance of the pigment was directly proportional to the hemoglobin concentration in the sample. […] A chemiluminescent substrate, Lumi-Phos* 530, was added to the reaction vessel and light generated by the reaction was measured with a luminometer. • TSAT (s-iron and transferrin will be collected to calculate the TSAT; TSAT=(iron μg/dL/transferrin mg/dL)×70.9). • S-iron: Serum iron (s-iron) was measured by a calorimetric assay using Roche automated clinical chemistry analyzer based on a immunoturbidimetric assay."}, "[7]": {"assay": "CKD-04 Phase III study: protocol defined cardiovascular adverse events", "assay_type": "in vivo, human", "conditions": "for composite cardiovascular events (incidence, % of patients): CKD-04 study, IIM 1000 mg single dose (1019 patients) vs iron sucrose 5 x 200 mg (506 patients), within 8 weeks", "protocol": "as §1, §2"}, "[8]": {"conditions": "iron-deficient CHF patients with LVEF ≤45%; single total dose infusion (Jaumdally et al., 2019); cited from earlier work"}}, "data": [{"substance": "ferric carboxymaltose", "values": [{"measurement": "effect on iFGF23", "setting": "iFGF23 (intact FGF23); see WO 2013/134273 A1", "result": "significantly increases"}]}, {"substance": "ferric derisomaltose [iron isomaltoside 1000]", "values": [{"measurement": "composite cardiovascular events (incidence, % of patients)", "setting": "[1]", "result": 0.8, "unit": "%"}, {"measurement": "composite cardiovascular events (incidence, % of patients)", "setting": "[1]; listed as iron", "result": 1.2, "unit": "%"}, {"measurement": "risk for increasing iFGF23 and triggering iFGF23-mediated effects", "setting": "iFGF23 (intact FGF23); clinical trials, Wolf et al., 2019", "result": "low"}, {"measurement": "iron stores", "setting": "[2]", "result": "repleted"}, {"measurement": "skeletal muscle energetics", "setting": "[2]", "result": "augmented"}, {"measurement": "QoL measures", "setting": "[3]", "result": "improved"}, {"measurement": "tolerability", "setting": "[3]; single fast intravenous infusion at relatively high doses without test dose", "result": "very well tolerated"}, {"measurement": "P-wave dispersion, changes in individual patients (FIG. 5)", "setting": "[4]; ANCOVA P-value 0.007, unchanged in saline placebo group", "result": "shortened"}, {"measurement": "reduction of P-wave dispersion", "setting": "[4]; at 2 weeks after total repletion dose, vs saline placebo, P=0.007", "result": 10, "unit": "ms"}, {"measurement": "P-wave dispersion, adjusted difference between the groups (ANCOVA)", "setting": "[4]; at 2 weeks, 95% confidence interval −17 & −3 msec, P=0.007", "result": -10, "unit": "ms"}, {"measurement": "P-wave dispersion difference after adjusting for size of the atria (indexed LA and RA volumes)", "setting": "[4]; at 2 weeks, 95% confidence interval −18 & −4 msec, P=0.005", "result": -11, "unit": "ms"}, {"measurement": "effect on the other endpoints (HR, PR, QRS, QT, QTc, LVEF, LV and atrial volumes)", "setting": "[4]; at 2 weeks, ANCOVA", "result": "no significant effect"}, {"measurement": "incidence on composite CV endpoint (and most sub-items including death from any cause) compared to Venofer and FCM (CDER report)", "setting": "[5]; Ferwon studies vs Injectafer FDA CDER report", "result": "lower"}, {"measurement": "decrease of composite cardiovascular events when treated with iron isomaltoside 1000 versus iron sucrose", "setting": "[5]; combined CKD-04/IDA-03", "result": 60, "unit": "%"}, {"measurement": "composite cardiovascular events (incidence, % of patients)", "setting": "[5]; combined CKD-04/IDA-03", "result": 2.5, "unit": "%"}, {"measurement": "treatment-emergent congestive heart failure adverse events (% of patients)", "setting": "[5]; combined CKD-04/IDA-03", "result": 1.8, "unit": "%"}, {"measurement": "worsening/exacerbation of heart failure (% of cases)", "setting": "[5]; combined CKD-04/IDA-03", "result": 1.8, "unit": "%"}, {"measurement": "rates of congestive heart failure, hypertension, atrial fibrillation, hypotension, and cardiac arrest compared to iron sucrose", "setting": "[5]; in each study (CKD-04, IDA-03, combined)", "result": "lower"}, {"measurement": "incidence for congestive heart failure", "setting": "[5]; patients with CV risk", "result": 1.2, "unit": "%"}, {"measurement": "worsening of congestive heart failure", "setting": "[5]; patients with CV risk", "result": 1.2, "unit": "%"}, {"measurement": "incidence for congestive heart failure", "setting": "[5]; patients with CV risk and CHF", "result": 1.4, "unit": "%"}, {"measurement": "worsening of congestive heart failure", "setting": "[5]; patients with CV risk and CHF", "result": 1.4, "unit": "%"}, {"measurement": "increase in Hb from baseline compared to iron sucrose", "setting": "[6]; all patients, weeks 1 and 2, p<0.001", "result": "higher increase"}, {"measurement": "change in Hb from baseline compared to iron sucrose (primary efficacy endpoint)", "setting": "[6]; all patients, weeks 4 and 8", "result": "non-inferiority"}, {"measurement": "increase in Hb from baseline", "setting": "[6]; patients with congestive heart failure in medical history, week 1 and 2", "result": "higher increase"}, {"measurement": "probability of not experiencing an adjudicated composite adverse cardiovascular event, compared to iron sucrose", "setting": "[7]; CKD-04, after 8 weeks, Kaplan-Meier", "result": "significantly higher"}, {"measurement": "composite cardiovascular events (incidence, % of patients)", "setting": "[7]", "result": 4.1, "unit": "%"}, {"measurement": "P wave dispersion", "setting": "[8]", "result": "attenuate"}]}, {"substance": "iron sucrose", "values": [{"measurement": "composite cardiovascular events (incidence, % of patients)", "setting": "[5]; combined CKD-04/IDA-03", "result": 4.1, "unit": "%"}, {"measurement": "treatment-emergent congestive heart failure adverse events (% of patients)", "setting": "[5]; combined CKD-04/IDA-03", "result": 6.5, "unit": "%"}, {"measurement": "worsening/exacerbation of heart failure (% of cases)", "setting": "[5]; combined CKD-04/IDA-03", "result": 5.4, "unit": "%"}, {"measurement": "incidence for congestive heart failure", "setting": "[5]; patients with CV risk", "result": 3.5, "unit": "%"}, {"measurement": "worsening of congestive heart failure", "setting": "[5]; patients with CV risk", "result": 1.7, "unit": "%"}, {"measurement": "incidence for congestive heart failure", "setting": "[5]; patients with CV risk and CHF", "result": 4.9, "unit": "%"}, {"measurement": "worsening of congestive heart failure", "setting": "[5]; patients with CV risk and CHF", "result": 3.7, "unit": "%"}, {"measurement": "composite cardiovascular events (incidence, % of patients)", "setting": "[7]", "result": 6.9, "unit": "%"}]}]}
